What follows are compounds tested against NSP14 (Severe acute respiratory syndrome coronavirus 2, UniProt P0DTD1) (assay: NSP14 MTase inhibition assay at 37° C. (MTase-Glo SAH detection)). Conditions: 0.3 nM NSP14, 2.5 μM SAM, 2.5 μM GpppA RNA, 45 min at 37° C.; read-out: Nsp14 Mtase Inh. IC50.
Format: biochemical, SARS-CoV-2
Description: NSP14 MTase assay at 37° C. (0.3 nM NSP14 as final enzyme concentration)
The NSP14 MTase assay at 37° C. is carried out in 384-well flat bottom polystyrene microplates (Greiner, 781075). Per well, 10 μl of 1×NSP14 reaction buffer (50 mM Tris-HCl, pH 7.5, 6 mM KCl, 1.25 mM MgCl2, 1 mM DTT, and 0.01% Tween-20) are dispensed in columns 1-23 using a Thermo Multidrop Combi dispenser (Thermo Scientific). 0.1 μl of serially diluted compounds in DMSO are dispensed into columns 1-22 of the assay microplates with a Janus 384 MDT NanoHead (PerkinElmer). In wells of column 23, which serve as negative controls, no compounds are added.
The NSP14 reaction is started by adding 4 μl of a 4× substrate solution containing S-adenosyl methionine (SAM, 10 μM) and GpppA RNA (10 μM) prepared in 1×NSP14 reaction buffer. Any addition of reagents is followed by a 30 second centrifugation at 500×g to ensure that all liquid was collected at the bottom of the well. The final concentrations of NSP14, SAM, and GpppA RNA are 0.3 nM, 2.5 μM, and 2.5 μM, respectively. The final reaction volume is 16 μl. Plates are sealed and incubated for 45 min at 37° C.
For SAH detection, 1 μl 5× MTase-Glo™ Reagent (Promega) is added to each well, plates are mixed for 1-2 minutes and incubated at room temperature for 30 minutes. 5 μl of room-temperature MTase-Glo™ Detection Solution (Promega) is added to each well, plates are mixed for 1-2 minutes and incubated at room temperature for 30 minutes. Luminescence signals of each well are recorded in relative light units (RLUs) using a Biotek Synergy Neo plate reader (BioTek, Winooski, VT). The SAH production is normalized against the positive control (PK, column 24) and negative control (NK, column 23) as follows: normalized % inhibition=100×(RLUsample-RLUaverageNK)/(RLUaveragePK-RLUaverageNK).

`COCC1(NC(=O)c2cc(S(=O)(=O)c3ccc4[nH]ncc4c3)c(C)n2C)CCN(c2ncc(F)cn2)C1` (single isomer, unassigned) [A.114, 4-((1H-indazol-5-yl)sulfonyl)-N-(1-(5-fluoropyrimidin-2-yl)-3-(methoxymethyl)pyrrolidin-3-yl)-1,5-dimethyl-1H-pyrrole-2-carboxamide] was tested. Which IC50 did it give?
The IC50 was 0.87 nM.

With `COCC1(NC(=O)c2cc(S(=O)(=O)c3ccc4[nH]ncc4c3)c(C)n2C)CCN(c2ncc(F)cn2)C1` (single isomer, unassigned) [A.115, 4-((1H-indazol-5-yl)sulfonyl)-N-(1-(5-fluoropyrimidin-2-yl)-3-(methoxymethyl)pyrrolidin-3-yl)-1,5-dimethyl-1H-pyrrole-2-carboxamide] as the compound, how does the IC50 read?
Its IC50 is 37 nM.

How did the IC50 turn out when `Cc1c(S(=O)(=O)c2ccc3[nH]ncc3c2)cc(C(=O)NC2(CO)CCN(c3ncc(F)cn3)C2)n1C` (single isomer, unassigned) [A.116, 4-((1H-indazol-5-yl)sulfonyl)-N-(1-(5-fluoropyrimidin-2-yl)-3-(hydroxymethyl)pyrrolidin-3-yl)-1,5-dimethyl-1H-pyrrole-2-carboxamide] was run?
The IC50 was 44 nM.

How did the IC50 turn out when `Cc1c(S(=O)(=O)c2ccc3[nH]ncc3c2)cc(C(=O)NC2(CO)CCN(c3ncc(F)cn3)C2)n1C` (single isomer, unassigned) [A.117, 4-((1H-indazol-5-yl)sulfonyl)-N-(1-(5-fluoropyrimidin-2-yl)-3-(hydroxymethyl)pyrrolidin-3-yl)-1,5-dimethyl-1H-pyrrole-2-carboxamide] was run?
Its IC50 is 2.8 nM.

Same assay, conditions: 37° C., 0.3 nM NSP14, 2.5 μM SAM, 2.5 μM GpppA RNA; read-out: Nsp14 Mtase Inh. IC50

With `Cc1c(S(=O)(=O)c2ccc3[nH]ncc3c2)cc(C(=O)NC2CCc3c(F)ccc(F)c32)n1C` (racemic) [B.70] as the compound, how does the IC50 read?
The IC50 was 0.95 nM.

Which IC50 does the source give for `Cc1c(S(=O)(=O)c2ccc3[nH]ncc3c2)cc(C(=O)NC2CCc3cc(C(F)(F)F)ccc32)n1C` (racemic) [B.71] here?
Its IC50 is 36 nM.

Which IC50 does the source give for `Cc1c(S(=O)(=O)c2ccc3[nH]ncc3c2)cc(C(=O)NC2CCc3ccc(C(F)(F)F)cc32)n1C` (racemic) [B.72] here?
The IC50 was 33 nM.

`Cc1c(S(=O)(=O)c2ccc3[nH]ncc3c2)cc(C(=O)NC2CCc3cc(F)c(F)cc32)n1C` (racemic) [B.92] was tested. Which IC50 did it give?
Its IC50 is 27 nM.

How did the IC50 turn out when `Cc1c(S(=O)(=O)c2ccc3[nH]ncc3c2)cc(C(=O)NC2CCc3cccc(F)c32)n1C` (racemic) [B.110] was run?
Its IC50 is 0.38 nM.

With `Cc1cc(S(=O)(=O)c2cc(C(=O)NCc3c(F)ccnc3N3CCC(C)(C(=O)O)C3)n(C)c2C)cc2cnn(C)c12` (racemic) [B.127] as the compound, how does the IC50 read?
Its IC50 is 0.58 nM.

`CN=S(=O)(NC(=O)c1cc(S(=O)(=O)c2ccc3[nH]ncc3c2)c(C)n1C)c1ccccc1` (racemic) [B.135, 4-(1H-indazol-5-ylsulfonyl)-1,5-dimethyl-N—(N-methyl-S-phenyl-sulfonimidoyl)pyrrole-2-carboxamide] was tested. Which IC50 did it give?
Its IC50 is 19 nM.

With `Cc1c(S(=O)(=O)c2ccc3[nH]ncc3c2)cc(C(=O)NC(C)c2ccnn2C)n1C` (racemic) [B.172] as the compound, how does the IC50 read?
The IC50 was 24 nM.

For `Cc1c(S(=O)(=O)c2ccc3[nH]nc(F)c3c2)cc(C(=O)NC2CCc3c2ccc(=O)n3C)n1C` (racemic) [B.178], which IC50 is on record?
The IC50 was 21 nM.

`Cc1c(S(=O)(=O)c2ccc3[nH]ncc3c2)cc(C(=O)N[C@H](C)c2c(F)cccc2F)n1C` (single isomer, unassigned) [B.64] was tested. Which IC50 did it give?
The IC50 was 4 nM.

For `Cc1c(S(=O)(=O)c2ccc3[nH]ncc3c2)cc(C(=O)N[C@H](C)c2c(F)cccc2F)n1C` (single isomer, unassigned) [B.65], which IC50 is on record?
The IC50 was 65 nM.

For `Cc1c(S(=O)(=O)c2cc(F)c3[nH]ncc3c2)cc(C(=O)N[C@@H](C)c2cccc3cnn(C4CC4)c23)n1C` (single isomer, unassigned) [B.87], which IC50 is on record?
Its IC50 is 0.82 nM.

For `Cc1c(S(=O)(=O)c2cc(F)c3[nH]ncc3c2)cc(C(=O)N[C@@H](C)c2cccc3cnn(C4CC4)c23)n1C` (single isomer, unassigned) [B.88], which IC50 is on record?
The IC50 was 22 nM.

For `Cc1c(S(=O)(=O)c2ccc3[nH]ncc3c2)cc(C(=O)N[C@H]2CCc3c(F)ccc(F)c32)n1C` (single isomer, unassigned) [B.139], which IC50 is on record?
Its IC50 is 1.3 nM.

`Cc1c(S(=O)(=O)c2ccc3[nH]ncc3c2)cc(C(=O)N[C@H]2CCc3c(F)ccc(F)c32)n1C` (single isomer, unassigned) [B.140] was tested. Which IC50 did it give?
Its IC50 is 0.31 nM.

Source: patent publication US20260226034A1 (The Rockefeller University, priority 2023, published 2026)
